Structures can show the parent of a compound that is named as a salt.
How the values were obtained:
liver GSH = assay: Liver GSH level measured ex vivo (Tietze enzymatic recycling assay); assay type: in vivo, BALB/c mice; conditions: for hepatic GSH level: 30 min p.i.
serum GSH = assay: Serum GSH level following APAP administration; assay type: in vivo, mice; conditions: 2 h after APAP 300 mg/kg i.p.
Description: FIG. 54. Serum GSH level following APAP administration. […] Data reported are means and standard deviation overlapped with data points from individual mouse. Statistical significance is evaluated by two-sample equal variance t-test. P<0.05 is considered statistically significant. N=4 mice for the experiment.

[1] = in vivo
Text: FIGS. 39A-E. Utilization of hepatic glutathione-mediated biotransformation to enhance tumor targeting of a cisplatin prodrug. (FIG. 39A) Scheme illustrating the rationale of designing the ICG-Cis-Pt prodrug by combining temporal serum protein binding and hepatic glutathione-mediated biotransformation to slow down the rapid renal clearance of Cis-Pt prodrug and enhance its tumor targeting efficiency while avoiding predominant accumulation in MPS. […] (FIG. 39C) Tumor targeting efficiency of Cis-Pt pro drug and ICG-Cis-Pt prodrug at 48 hr p.i. (FIG. 39D) Renal clearance profiles of Cis-Pt prodrug and ICG-Cis-Pt prodrug. […] (FIG. 39E) Biodistribution of Pt in organs at 48 hr and 7 day following intravenously injection of ICG-Cis-Pt prodrug. The accumulation of ICG-Cis-Pt in MPS as well as in other major organs is low and continues to decrease over time. Statistical significance is evaluated by two-sample t-test (**p<0.01).

plasma GSH = assay: Plasma glutathione level after DEM administration; assay type: in vivo, BALB/c mice
Description: FIGS. 21A-B. Plasma glutathione level after DEM administration. (FIG. 21A) Plasma total glutathione (reduced GSH+2GSSG) and glutathione disulfide (GSSG) concentration at various time points after intraperitoneal injection of 1 mL/kg DEM in mice (n=3). (FIG. 21B) Plasma reduced glutathione concentration at different time was then calculated by subtracting GSSG from the total GSH concentration. The quantification of plasma total GSH and GSSG was carried out according to the established procedures (Rahman et al., 2006) via a modified Tietze enzymatic recycling assay.
Depletion of tissue GSH in vivo.

[2] = test system: APAP-induced liver injury; assay: NAC treatment of APAP-induced liver injury (liver morphology, TUNEL); assay type: in vivo, mice
Description: FIGS. 44A-D. Monitoring hepatic GSH depletion in drug-induced liver injury allows early treatment and improves prognosis. (FIG. 44A) Scheme of the APAP metabolism and pathophysiology process of APAP overdose induced hepatotoxicity. Hepatic GSH depletion occurs much earlier than the death of hepatocytes and the release of serum biomarkers. (FIG. 44B) Serum ALT levels of mice (N=3) at multiple time points after receiving 300 mg/kg body weight APAP. […] (FIG. 44C) Serum ALT levels of mice (N=3) at 12 h post injection of overdose APAP with NAC treatment at different time points after APAP administration. (FIG. 44D) Representative color pictures of the liver (12 h after APAP administration) as well as fluorescent microscope images of cell death in liver tissues (detected using TUNEL assay) from APAP overdosed mice without NAC treatment or receiving NAC treatment at 30 min (early treatment) and 5.5 h (delayed treatment) after APAP administration. Cell nuclei were counter-stained with DAPI. Scale bar, 20 μm. Statistical significance is evaluated by two-sample equal variance t-test (P<0.05; statistically significant). Data points are presented as means and standard deviation.
APAP-induced liver injury animal model. Healthy male BALB/c mice were pre-fasted for 5 h and then intraperitoneally injected with APAP saline solution (˜28 mg/mL) at an overdose of 300 mg/kg body weight. […]

[3] = Tumor targeting efficiency in MCF-7 xenograft mice; assay type: in vivo; conditions: nude, mouse, tumor (MCF-7 xenograft), intravenous, 24 hr p.i., read-out: tumor targeting efficiency (ICG)
Text: Blue arrows indicate the tumors.

[4] = Blood pharmacokinetics after intravenous injection; conditions: i.v.
Description: Statistical significance is evaluated using a two-sample unequal variances (Welch's) t-test (**P<0.01, ***P<0.005). Data points are reported as mean±s.d.
Both curves were fitted with two-phase exponential decay functions to obtain the weighted average half-lives.
Pharmacokinetics and biodistribution study of 1CG4-GS-Au25. […] At certain time point post-injection, blood sample (˜30 μL) was retro-orbitally collected and weighed, followed by the addition of 500 μL lysis buffer containing 20 mM cysteine (pH˜8) to liberate ICG from Au25 nanocluster and recover the quenched fluorescence of ICG. Then fluorescence of cysteine treated blood sample was measured by the in vivo imaging system to quantify ICG in blood. Afterwards, the blood sample was completely dissolved in freshly made aqua regia and the Au amount in blood was analyzed by ICP-MS.

in vivo = conditions: nude, mouse, in vivo
Text: (§1) FIGS. 30A-B. Decay of background tissue fluorescence signal over time. (FIG. 30A) Representative in vivo imaging of 1CG4-GS-Au25 injected mouse (72 hr p.i.) illustrating the region of interest (ROI) chosen for tumor (red dashed circle) and background tissue (yellow dashed circle) ICG fluorescence quantification. Red arrows indicate tumor location.

MCF-7 tumor = assay: in vivo; conditions: MCF-7 tumor bearing nude mice
Text: as §1

CC(=O)Nc1ccc(O)cc1 [APAP, acetaminophen]
hepatic GSH level of overdosed mice, of that of the control mice (liver GSH; APAP 300 mg/kg): ~36% | hepatic GSH level (liver GSH; APAP normal dose 60 mg/kg): 6.6±0.8 μmole/g tissue | hepatic GSH level (liver GSH; APAP overdose 300 mg/kg): 2.1±1.2 μmole/g tissue | serum GSH level (serum GSH): didn't change significantly

CN(C)CCCN1c2ccccc2Sc2ccc(Cl)cc21 [CPZ, chlorpromazine]
liver GSH level (liver GSH; 0.5 h after CPZ 100 mg/kg i.p.): decrease in hepatic GSH level

[NH2][Pt]([NH2])([OH])([Cl])([Cl])[O]C(=O)CCC(=O)O [Cis-Pt prodrug, cis,cis,trans-[Pt(NH3)2Cl2(OH)(O2CCH2CH2COOH)]]
AUC (blood retention) [1]: 7.4±0.2 % ID/g×h

CCOC(=O)/C=C\C(=O)OCC [DEM, diethyl maleate]
liver GSH level (liver GSH; 0.3 mg/kg body weight DEM, intraperitoneal): ~3.1 μmole/g liver tissue | liver GSH level (liver GSH; 0.6 mg/kg body weight DEM, intraperitoneal): ~0.6 μmole/g liver tissue | duration of low plasma GSH level before recovery (plasma GSH; single injection of DEM): 2 to 3 h | plasma GSH level, of the initial value (plasma GSH; single intraperitoneal injection of DEM, 1 mL/kg): ~12%

CC(=O)N[C@@H](CS)C(=O)O [NAC, N-acetylcysteine]
effect on liver damage (morphology, TUNEL) ([2]; NAC at 30 min post-injection of APAP (early treatment)): almost completely reverse the liver damage | effect on liver damage (morphology, TUNEL) ([2]; NAC at 5.5 h after APAP overdose (delayed treatment)): severe hemorrhage on the liver tissue as well as the pervasive death of liver cells

CC1(C)C(/C=C/C=C/C=C/C=C2\N(CCCCS(=O)(=O)O)c3ccc4ccccc4c3C2(C)C)=[N+](CCCCS(=O)(=O)[O-])c2ccc3ccccc3c21 [free ICG, indocyanine green]
tissue uptake at 24 h [3]: ~0.15 %ID/g | ICG blood retention (AUC) [4]: ~1.9 h×% ID/g | half-life (in vivo; half-life of ICG retention (fluorescence decay) in tumor): ~3.8 h | half-life (in vivo; half-life of ICG signal in background tissues): 3.5 h | maximum tumor contrast index (CI) (MCF-7 tumor): 1.8

From US12440582B2, “Biothiol-activatable probe and method of use” (BOARD OF REGENTS, THE UNIVERSITY OF TEXAS SYSTEM, priority 2019, dated 2025)
